Laboratory results: paper PMC8883495, “N-terminal phosphorylation regulates the activity of glycogen synthase kinase 3 from Plasmodium falciparum” (Biochemical Journal, 2022)

Tests used:
PfGSK3 [1] = molecular target: T1, PfGSK3 (Plasmodium falciparum, UniProt O77344); assay: nanoDSF thermal shift; type: binding; conditions: 1 mg/ml protein; 6 mM dATP in Figure 2B; concentration series in supplement; heating 1 °C/min
T1 construct: gene PF3D7_0312400
T1 sequence (O77344 1-440): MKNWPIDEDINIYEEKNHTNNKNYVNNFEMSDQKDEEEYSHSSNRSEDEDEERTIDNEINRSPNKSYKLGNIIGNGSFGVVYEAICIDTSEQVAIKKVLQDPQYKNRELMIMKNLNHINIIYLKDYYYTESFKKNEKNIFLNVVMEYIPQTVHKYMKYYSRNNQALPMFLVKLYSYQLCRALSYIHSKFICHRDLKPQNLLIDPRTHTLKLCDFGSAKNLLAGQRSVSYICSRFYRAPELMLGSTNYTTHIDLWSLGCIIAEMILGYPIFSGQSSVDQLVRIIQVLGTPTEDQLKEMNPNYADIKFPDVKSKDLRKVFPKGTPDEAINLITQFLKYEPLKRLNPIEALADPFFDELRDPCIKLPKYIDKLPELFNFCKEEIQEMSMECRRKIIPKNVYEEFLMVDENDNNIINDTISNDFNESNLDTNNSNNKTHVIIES

PfGSK3 [2] = molecular target: T1, PfGSK3; assay: KinaseGlo Plus luminescence ATP consumption (autophosphorylation); type: biochemical; conditions: 30 µM ATP, no peptide substrate; 20 mM MgCl2; pH 7.5; 30 °C

Compound	Tm (PfGSK3 [1])	KinaseGlo Plus luminescence ATP consumption (autophosphorylation) (PfGSK3 [2])
Nc1ncnc2c1ncn2[C@H]1C[C@H](O)[C@@H](COP(=O)(O)OP(=O)(O)OP(=O)(O)O)O1 [dATP]	dATP stabilizes PfGSK3, suggesting that it binds in the ATP binding pocket	
Nc1ncnc2c1ncn2[C@@H]1O[C@H](COP(=O)(O)OP(=O)(O)OP(=O)(O)O)[C@@H](O)[C@H]1O [ATP]		The assay showed the consumption of ATP even in the absence of the substrate peptide
